Data as given in US12377104B1, “Methods for treating a fatty liver disease” (Madrigal Pharmaceuticals, Inc., priority 2024, dated 2025).

How the values were obtained:
CYP2C8 = target: T1, CYP2C8 (Homo sapiens, UniProt P10632); test: In vitro metabolism by CYP enzymes; format: in vitro ADME
T1 sequence (P10632 1-490): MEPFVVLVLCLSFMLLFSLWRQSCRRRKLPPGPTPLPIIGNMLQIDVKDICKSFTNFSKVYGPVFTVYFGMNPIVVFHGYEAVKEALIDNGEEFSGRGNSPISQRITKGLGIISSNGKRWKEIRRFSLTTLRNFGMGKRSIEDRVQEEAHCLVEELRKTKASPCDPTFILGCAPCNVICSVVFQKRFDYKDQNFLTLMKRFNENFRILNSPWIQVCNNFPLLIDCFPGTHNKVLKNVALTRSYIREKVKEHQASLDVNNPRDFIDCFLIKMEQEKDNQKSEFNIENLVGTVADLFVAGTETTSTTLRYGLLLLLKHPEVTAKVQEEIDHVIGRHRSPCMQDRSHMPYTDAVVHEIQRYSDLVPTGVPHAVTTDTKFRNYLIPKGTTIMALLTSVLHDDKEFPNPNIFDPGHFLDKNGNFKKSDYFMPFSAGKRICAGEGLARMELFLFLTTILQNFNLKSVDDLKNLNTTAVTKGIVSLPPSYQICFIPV

[1] = test system: NASH patients with fibrosis stage F1A or F1C; test: MAESTRO-NASH: exploratory F1 (F1A/F1C) population, endpoints and safety

For `CC(C)c1cc(Oc2c(Cl)cc(-n3nc(C#N)c(=O)[nH]c3=O)cc2Cl)n[nH]c1=O` [Resmetirom, 2-(3,5-dichloro-4-((5-isopropyl-6-oxo-1,6-dihydropyridazin-3-yl)oxy)phenyl)-3,5-dioxo-2,3,4,5-tetrahydro-1,2,4-triazine-6-carbonitrile], the “metabolizing CYP enzymes” value (CYP2C8) was “metabolized by CYP2C8 and is not metabolized by other cytrochrome P450 (CYP) enzymes”, the “Any Serious TEAE, %” value ([1]; 80 mg) was “(20.0) %” and the “Any TEAEs leading to Study Discontinuation, %” value ([1]; 80 mg) was “(13.3) %”. The “TEAE Grade 1, %” value ([1]; 80 mg) was “(20.0) %”, the “TEAE Grade 2, %” value ([1]; 80 mg) was “(53.3) %” and the “TEAE Grade 3, %” value ([1]; 80 mg) was “(16.7) %”. The “Any TEAE, %” value ([1]; 80 mg (N = 30)) was “(93.3) %”, the Fibrosis improvement endpoint ([1]; 80 mg (N = 30)) was 21.7% and the Nash resolution endpoint ([1]; 80 mg (N = 30)) was 38.3%. For the same compound, the “Any Serious TEAE, %” value ([1]; 100 mg) was “(23.1) %”, the “Any TEAEs leading to Study Discontinuation, %” value ([1]; 100 mg) was “(11.5) %” and the “TEAE Grade 1, %” value ([1]; 100 mg) was “(19.2) %”. The “TEAE Grade 2, %” value ([1]; 100 mg) was “(46.2) %”, the “TEAE Grade 3, %” value ([1]; 100 mg) was “(15.4) %” and the “Any TEAE, %” value ([1]; 100 mg (N = 26)) was “(80.8) %”. For the same compound, the Fibrosis improvement endpoint ([1]; 100 mg (N = 26)) was 15.4%, the Nash resolution endpoint ([1]; 100 mg (N = 26)) was 25.0% and the “Abdominal pain upper, %” value ([1]; AEs >5%, 80 mg) was “(6.7) %”. The “Abdominal pain, %” value ([1]; AEs >5%, 80 mg) was “(3.3) %”, the “Arthralgia, %” value ([1]; AEs >5%, 80 mg) was “(20.0) %” and the “Back pain, %” value ([1]; AEs >5%, 80 mg) was “(13.3) %”. The “Constipation, %” value ([1]; AEs >5%, 80 mg) was “(13.3) %”, the “Diarrhea, %” value ([1]; AEs >5%, 80 mg) was “(26.7) %” and the “Dizziness, %” value ([1]; AEs >5%, 80 mg) was “(6.7) %”. For the same compound, the “Fatigue, %” value ([1]; AEs >5%, 80 mg) was “(10.0) %”, the “Headache, %” value ([1]; AEs >5%, 80 mg) was “(13.3) %” and the “Hypertension (AE), %” value ([1]; AEs >5%, 80 mg) was “(3.3) %”. The “Nausea, %” value ([1]; AEs >5%, 80 mg) was “(16.7) %”, the “Pruritus, %” value ([1]; AEs >5%, 80 mg) was “(6.7) %” and the “Pyrexia, %” value ([1]; AEs >5%, 80 mg) was “(6.7) %”. For the same compound, the “Rash, %” value ([1]; AEs >5%, 80 mg) was “(10.0) %”, the “Type 2 diabetes mellitus (AE), %” value ([1]; AEs >5%, 80 mg) was “(3.3) %” and the “Urinary tract infection, %” value ([1]; AEs >5%, 80 mg) was “(6.7) %”. The “Vomiting, %” value ([1]; AEs >5%, 80 mg) was “(3.3) %”, the “Weight decreased, %” value ([1]; AEs >5%, 80 mg) was “(3.3) %” and the “Abdominal pain upper, %” value ([1]; AEs >5%, 100 mg) was “(3.8) %”. The “Abdominal pain, %” value ([1]; AEs >5%, 100 mg) was “(7.7) %”, the “Arthralgia, %” value ([1]; AEs >5%, 100 mg) was “(7.7) %” and the “Back pain, %” value ([1]; AEs >5%, 100 mg) was “(11.5) %”. The “Constipation, %” value ([1]; AEs >5%, 100 mg) was “(7.7) %”, the “Cough, %” value ([1]; AEs >5%, 100 mg) was “(3.8) %” and the “Diarrhea, %” value ([1]; AEs >5%, 100 mg) was “(19.2) %”. The “Dizziness, %” value ([1]; AEs >5%, 100 mg) was “(7.7) %”, the “Fatigue, %” value ([1]; AEs >5%, 100 mg) was “(7.7) %” and the “Nausea, %” value ([1]; AEs >5%, 100 mg) was “(7.7) %”. The “Osteopenia, %” value ([1]; AEs >5%, 100 mg) was “(7.7) %”, the “Pruritus, %” value ([1]; AEs >5%, 100 mg) was “(15.4) %” and the “Rash, %” value ([1]; AEs >5%, 100 mg) was “(7.7) %”. The “Type 2 diabetes mellitus (AE), %” value ([1]; AEs >5%, 100 mg) was “(3.8) %”, the “Urinary tract infection, %” value ([1]; AEs >5%, 100 mg) was “(15.4) %” and the “Vomiting, %” value ([1]; AEs >5%, 100 mg) was “(11.5) %”. For the same compound, the “Weight decreased, %” value ([1]; AEs >5%, 100 mg) was “(11.5) %”.
